The series concerns cytochrome P450 1A1 (CYP1A1). In words: CYP1A1 expression in colonic mucosal tissue of UC patients by RT-PCR (Example 8). In kind it is in vivo, human. Particulars: mucosal healing (Mayo sub-score 0/1) after treatment. An excerpt:
AhR is a ligand-activated transcription factor that ultimately acts in the nucleus in promoting transcription of various genes, including among others cytochrome P450 1A1 (CYP1A1) which is one of the most important xenobiotic-metabolizing enzymes and an important regulator of immune response in the intestine. Therefore, the inventors studied the expression of CYP1A1 in samples of colonic mucosal tissue obtained from UC patients, using RT-PCR.
Samples of colonic tissue were obtained during lower endoscopy from UC patients treated with CurQD and patients treated by other medications or placebo. Tissue specimens were immersed in liquid nitrogen. Biopsy samples were lysed and homogenized in TRI-Reagent and extracted according to the manufacturer's instructions (Life technologies, USA). Reverse transcription was performed on lug total RNA using the High Capacity RNA to cDNA kit according to the manufacturer's instructions (Applied Biosystems Foster City, CA USA) and Hs01054796_g1 assay for CYP1A1 and Hs99999905_m1 assay for GAPDH (housekeeping gene).

Here are results for one compound from patent US20260256868A1, “COMBINATION HERBAL MEDICINES FOR THE TREATMENT OF INFLAMMATORY BOWEL DISORDERS” (EVINATURE LTD., priority 2022, published 2026).

`Nc1ccc(O)c(C(=O)O)c1` [Batch 5ASA, 5-aminosalicylic acid]: the “median CYP1A1 expression in patients who achieved mucosal healing” value stood at 4.6.
